Results as given in US20210205292A1, “INHIBITORS OF CREB-CBP INTERACTION FOR TREATMENT OF LEUKEMIA” (The Board of Trustees of the Leland Stanford Junior …, priority 2016, published 2021).

What was measured:
KG-1 cells = experiment: Chemotherapy combination, isobolograms in KG-1 cells; assay type: cell-based; conditions: 48 hours
Method: (§1) AML cell lines were purchased from ATCC and maintained with IMDM (Gibco) supplemented with 10% FBS (Fisher Scientific) and 1% PSG (Gibco). Cells were plated at a density of 2-4×10^5 cells/ml, and treated with various doses of Compound A in 0.1% DMSO or 0.1% DMSO alone. Cell counts and viability were determined using the Vi-CELL XR Cell Viability Analyzer (Beckman Coulter). HL-60 and KG-1 cells overexpressing CREB or CBP were generated using lentiviral gene delivery with subsequent puromycin selection and FACs sorting for GFP. CREB knockdown was achieved by infecting cells with a lentivirus expressing the shRNA sequence 5′-[…]-3′ (SEQ ID NO:). For chemotherapy combination experiments, combination index values were calculated using median effects analysis on Calcusyn software. Human patient bone marrow samples were cultured in DMEM plus 20% FBS and 1×PSG, supplemented with recombinant GM-CSF (20 ng/ml), G-CSF (20 ng/ml), SCF (50 ng/ml), IL-3 (20 ng/ml), and IL-6 (10 ng/ml). Cells were plated at a concentration of 1×10^5 cells/ml in a 12-well plate. Vehicle (0.1% DMSO) or Compound A (2 μM) was added for up to 72 hours. All samples contained >85% AML blasts and were not sorted prior to performing experiments. Immunostaining and flow cytometry analyses were performed according to standard procedures. All antibodies were purchased from BD Biosciences. Single cell suspensions of bone marrow culture were subsequently analyzed on a D×P10 flow cytometer (Cytek). Bone marrow from AML patients were collected through voluntary patient participation at University of California, Los Angeles (Los Angeles, Calif., USA) and Stanford University (Palo Alto, Calif., USA) in compliance with the Institutional Review Board regulations of each institution.
To test the effects of CREB inhibition on AML cells, four AML cell lines were treated with doses of Compound A ranging from 100 pM to 10 μM for 48 hours. […] KG-1 cells were less sensitive to Compound A and expressed lower levels of CREB compared to HL-60 cells (FIG. 2, panel A). […]

HL-60 cells = experiment: Flow cytometry of apoptosis (c-PARP+, aqua amine+) in HL-60 cells; assay type: cell-based, human; conditions: Homo sapiens, 72 hours, 2 mM, read-out: cells apoptotic or non-viable
Method: as §1, with “Immunostaining and flow cytometry analyses were performed according to standard procedures. All antibodies were purchased from BD Biosciences.” left out, “Bone marrow from AML patients were collected through voluntary patient participation at University of California, Los Angeles (Los Angeles, Calif., USA) and Stanford University (Palo Alto, Calif., USA) in compliance with the Institutional Review Board regulations of each institution.” left out

[1] = test system: Bcl-2, Mcl-1, Bcl-XL expression in HL-60 cells; experiment: RT-PCR and Western blot of anti-apoptotic proteins in HL-60 cells; assay type: cell-based, human; set-up: transcription of Bcl-2: dose or concentration left out as unconfirmed
Method: Total RNA was isolated using the Aurum RNA Isolation Mini Kit, and the iScript cDNA Synthesis Kit was used to prepare samples for qPCR (Bio-Rad). PCR was performed on the CFX384 Real-Time System (Bio-Rad) and results were analyzed using the Livak method. For analysis of RNA-seq data as target genes of known transcription factors, a curated list of all human target genes was extracted from the TRANSFAC Pro database.
Cells were lysed in RIPA buffer (Sigma), and the protein concentrations were determined by BCA assay (Thermo Scientific Pierce). Lysates were solubilized in 6×SDS PAGE buffer and […] of protein was loaded into 6-15% SDS PAGE gels, pheresed, and then transferred onto […] PVDF membrane (Millipore). Primary antibodies were applied at a dilution of 1:1000. Anti-Bcl-2, -Bax, -Mcl-1, -Bcl-XL, -Cyclin A and -Cyclin D1 antibodies were purchased from Cell Signaling Technologies. Anti-total acetylated histone and -ac-H3K27 were purchased from Santa Cruz Biotechnologies. Anti-actin and -CREB antibodies were purchased from upstate. Secondary antibodies were used at a 1:2500 dilution and purchased from Thermo Scientific/Pierce. WesternBright ECL was used for image acquisition on Image Lab software (Bio-Rad).
The balance between pro- and anti-apoptotic protein expression contributes to cell fate decisions. CREB regulates the expression of several anti-apoptotic proteins, including Bcl-2, Bcl-XL and Mcl-1. Bcl-2 expression in particular is known to mediate resistance to chemotherapy and influence clinical outcome in a number of cancer types, including AML. The ability of Compound A to cause apoptosis by disrupting the CREB-driven expression of these anti-apoptotic proteins was examined. In HL-60 cells treated with Compound A, apoptosis is induced in a dose- and time-dependent manner. […] Compound A elicited apoptosis through the intrinsic apoptosis pathway, with activation of Caspase-3 (FIG. 5, panel B) and detectable Caspase-9 cleavage (data not shown). […]

[2] = test system: Cyclin A1, Cyclin D1, Fra-1, RFC-3; experiment: Expression of CREB-regulated cell cycle genes; assay type: cell-based
Method: Cyclin A1 and D1 expression was decreased following 12 hours of treatment, while Fra-1 and RFC-3 expression decreased following 48 hours of treatment.
Mol Cell Biol. 2004; 24(11):4696-709) (FIG. 6, panel C). […] Levels of RFC-3 also decrease following Compound A treatment (FIG. 6, panel C).

## N#Cc1ccc(NC(=O)c2cc3ccccc3cc2O)cc1 [Compound A, N-(4-cyanophenyl)-3-hydroxy-2-naphthamide]
KG-1 cells
  interaction with daunorubicin and cytarabine (isobolograms): synergistic
KG-1 cells; Compound A with cytarabine
  Combination Index (CI): less than 1
KG-1 cells; Compound A with daunorubicin
  Combination Index (CI): less than 1
HL-60 cells
  cytotoxicity at 2000 µM: > 95%
[1]
  Bcl-XL expression: remained constant
  expression of Mcl-1: initially increased, then decreased at 72 hours
[1]; 72 hours
  transcription of Bcl-2: decreased
[2]; 12 hours of treatment
  Cyclin A1 and D1 expression: decreased
[2]; 48 hours of treatment
  Fra-1 and RFC-3 expression: decreased
